Molecular target: T1, Tyrosine-protein kinase ITK/TSK [357-620,Y512E] (Human, UniProt Q08881, Y512E)
T1 construct: 357-620
Assay: LanthaScreen Kinase Binding Assay
Text: This assay is based on the binding and displacement of Alexa-fluor 647-labeled ATP-competitive kinase inhibitor tracer 236. Binding of the tracer is detected using a europium-labeled anti-tag antibody that binds to the purified recombinant tagged Itk protein. Binding of the tracer 236 is reversible and rapid, and simultaneous binding of the tracer and antibody results in fluorescence resonance energy transfer (FRET). Displacement of the tracer upon inhibitor binding results in a decrease of FRET. The assay can be read continuously, enabling rates of binding (and displacement) to be monitored.

T1 sequence (Q08881 357-620 Y512E): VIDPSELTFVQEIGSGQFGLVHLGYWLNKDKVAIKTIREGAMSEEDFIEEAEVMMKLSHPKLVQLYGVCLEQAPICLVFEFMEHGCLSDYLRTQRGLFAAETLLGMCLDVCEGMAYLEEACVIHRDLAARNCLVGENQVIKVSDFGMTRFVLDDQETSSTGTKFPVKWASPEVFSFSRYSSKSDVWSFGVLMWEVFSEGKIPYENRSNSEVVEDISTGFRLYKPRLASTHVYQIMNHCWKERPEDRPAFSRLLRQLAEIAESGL

Row | SMILES | IC50 [nM]
1 | O[C@H]1CC[C@H](Nc2nc(CN3CCOCC3)cc(Nc3nc4cccnc4s3)n2)CC1 [(trans)-4-((4-(Morpholinomethyl)-6-(thiazolo[5,4-b]pyridin-2-ylamino)pyrimidin-2-yl)amino)cyclohexanol (1)] | 100
2 | C=CC(=O)N1CCC(Nc2nc(CN3CCOCC3)cc(Nc3nc4cccnc4s3)n2)CC1 [N2-(1-Acryloyl-4-piperidinyl)-6-(4-morpholinylmethyl)-N4-[1,3]thiazolo[5,4-b]pyridin-2-yl-2,4-pyrimidinediamine (3)] | 320
3 | C=CC(=O)NCCNc1nc(CN2CCOCC2)cc(Nc2nc3cccnc3s2)n1 [N-(2-{[4-(4-Morpholinylmethyl)-6-([1,3]thiazolo[5,4-b]pyridin-2-ylamino)-2-pyrimidinyl]amino}ethyl)-2-propenamide (2)] | 1300
4 | C=CC(=O)N1CC[C@H](Nc2cc(CN3CCCCC3)cc(Nc3nc4cccnc4s3)n2)C1 [(S)-1-(3-((4-(Piperidin-1-ylmethyl)-6-(thiazolo[5,4-b]pyridin-2-ylamino)pyridin-2-yl)amino)pyrrolidin-1-yl)prop-2-en-1-one (10)] | 6.3
5 | C=CC(=O)N1CC[C@H](Nc2cc(CN[C@H](C)C(C)(C)C)cc(Nc3nc4cccnc4s3)n2)C1 [1-((S)-3-((4-((((R)-3,3-Dimethylbutan-2-yl)amino)methyl)-6-(thiazolo[5,4-b]pyridin-2-ylamino)pyridin-2-yl)amino)pyrrolidin-1-yl)prop-2-en-1-one (13)] | 7.9
6 | C=CC(=O)N1CC[C@H](Nc2cc(CN3C[C@@H](C)O[C@@H](C)C3)cc(Nc3nc4cccnc4s3)n2)C1 [N-[(3S)-1-Acryloyl-3-pyrrolidinyl]-4-{[cis-2,6-dimethyl-4-morpholinyl]methyl}-N'-[1,3]thiazolo[5,4-b]pyridin-2-yl-2,6-pyridinediamine (9)] | 5
7 | C=CC(=O)N[C@H]1CCCC[C@H]1Nc1nc(CN2CCOCC2)cc(Nc2nc3cccnc3s2)n1 (relative stereo) [N-(cis-2-{[4-(4-Morpholinylmethyl)-6-([1,3]thiazolo[5,4-b]pyridin-2-ylamino)-2-pyrimidinyl]amino}cyclohexyl)-2-propenamide (4)] | 320
8 | C=CC(=O)N1CC[C@H](Nc2cc(CN(C)C)cc(Nc3nc4cccnc4s3)n2)C1 [(S)-1-(3-((4-((Dimethylamino)methyl)-6-(thiazolo[5,4-b]pyridin-2-ylamino)pyridin-2-yl)amino)pyrrolidin-1-yl)prop-2-en-1-one (11)] | 32
9 | C=CC(=O)N[C@H]1CC[C@H](Nc2nc(CN3CCOCC3)cc(Nc3nc4cccnc4s3)n2)CC1 [N-(trans-4-{[4-(4-Morpholinylmethyl)-6-([1,3]thiazolo[5,4-b]pyridin-2-ylamino)-2-pyrimidinyl]amino}cyclohexyl)-2-propenamide (5)] | 2000

Continued by falling IC50, values first:

Row | IC50 [nM] | SMILES
10 | 20000 | C=CC(=O)N1CC[C@@H](Nc2nc(CN3CCOCC3)cc(Nc3nc4cccnc4s3)n2)C1 [N2-[(3R)-1-Acryloyl-3-pyrrolidinyl]-6-(4-morpholinylmethyl)-N4-[1,3]thiazolo[5,4-b]pyridin-2-yl-2,4-pyrimidinediamine (14)]
11 | 500 | C=CC(=O)N1CC[C@H](Nc2nc(CN3CCOCC3)cc(Nc3nc4cccnc4s3)n2)C1 [N2-[(3S)-1-Acryloyl-3-pyrrolidinyl]-6-(4-morpholinylmethyl)-N4-[1,3]thiazolo[5,4-b]pyridin-2-yl-2,4-pyrimidinediamine (7)]
12 | 250 | C=CC(=O)N[C@H]1CCC[C@@H](Nc2nc(CN3CCOCC3)cc(Nc3nc4cccnc4s3)n2)C1 (relative stereo) [N-(cis-3-{[4-(4-Morpholinylmethyl)-6-([1,3]thiazolo[5,4-b]pyridin-2-ylamino)-2-pyrimidinyl]amino}cyclohexyl)-2-propenamide (6)]
13 | 40 | C/C=C/C(=O)N1CC[C@H](Nc2cc(CN3C[C@@H](C)O[C@@H](C)C3)cc(Nc3nc4cccnc4s3)n2)C1 [N-{(3S)-1-[(2E)-2-Butenoyl]-3-pyrrolidinyl}-4-{[cis-2,6-dimethyl-4-morpholinyl]methyl}-N'-[1,3]thiazolo[5,4-b]pyridin-2-yl-2,6-pyridinediamine (16)]
14 | 5 | C=CC(=O)N1CC[C@H](Nc2cc(CN[C@@H](C)C(C)(C)C)cc(Nc3nc4cccnc4s3)n2)C1

Source: BindingDB's records for doi:10.1074/jbc.M113.474114 (Glaxosmithkline, 2013)
